Measured values taken from patent US10716769B2 (GUANGZHOU JTREAT BIOSCI. LTD., priority 2015, dated 2020).
Converted amounts (≈) assume the structure as drawn. Where two headings read alike, the source gives them in different places.

Key:
HPV 6/11 Virus = assay: HPV detection via fluorescence quantitative PCR in genital warts tissue homogenate; set-up: species or system human papillomavirus; settings: for HPV 6/11 virus detection, in words: 24 hours after addition into the tissue homogenate of genital warts; for HPV 6/11 Virus: genital warts tissue homogenate, 37° C., 24 hours, FQ-PCR
Source text: (§1) The aforesaid compounds and/or compositions containing the same are effective in killing and inhibiting HPV type 6/11 and type 16/18, which can be used for the preparation of drugs for preventing and treating viral infection of HPV, preventing and treating genital warts, flat warts, common warts, vaginitis, cervicitis and cervical erosion, cervical cancer, esophageal cancer and other cancers caused by HPV. The present invention observes the effect of active ingredients and products by the detection of the change in the amount of the HPV virus through the real-time quantitative PCR. Such method has been applied in several publications (Youling C A I, et al., Chinese STD/AIDS, 2002, 8: 2,108; Yuansheng W U, Ruijiang F A N, et al., Practical Application of Integrated Chinese and Western Medicine in Clinics, 2003, 3: 2,1).
(§2) The microemulsion obtained in example 1 is used as a test sample and saline for blank control.
(§3) The standard clinical genital warts specimens from a variety of patients after being cut off are washed with saline for removing bloods, and are cut into pieces under aseptic conditions, added with saline in 3 times of their volumes to be uniformly mixed, grinded into homogenate and placed at −40° C. for use.
(§4) Each test sample drug microemulsion and the saline of 50 μl for each are respectively added with 50 μl the genital warts tissue homogenate, and incubated at 37° C. for 24 hours; tests are performed according to the operation procedure provided by the HPV6, 11 and 16, 18 type FQ-PCR diagnostic kits provided by Da'an Gene Diagnostic Center. 0.2 ml of DNA extracted by the conventional alkaline lysis method is put into the thin-walled reaction tube, and simultaneously added with primers, F-PROBE, DNTP, DNA polymerase, buffers and the like in a certain concentration; ABI PRISM™ 7700 fluorescence quantitative PCR amplifier is used to repeat 40 circulations each with 45 s at 93° C. and 120 s at 55° C. after predegeneration at 93° C. for 2 mins; the quantitative results are automatically analyzed by the computer software to calculate the quantitative results of the initial copy number. The data are shown in Table 2 (completed by Da'an Gene Clinical Test Center).

HPV16/18 = assay: as above; set-up: species or system human papillomavirus; settings: for HPV16/18 virus detection, in words: 24 hours after addition into the tissue homogenate of genital warts; for HPV16/18: genital warts tissue homogenate, 37° C., 24 hours, FQ-PCR
Source text: as §1, §2, §3, §4

HIV-1 integrase = target: T1, HIV-1 integrase (Human immunodeficiency virus type 1 group M subtype B, UniProt P04585); assay: Test of sample inhibition to HIV-1 integrase (ELISA, strand transfer); type: biochemical; settings: for inhibition at 109 µg/mL: read-out: IC50 (HIV-1 IN inhibition), dash
T1 construct: purified HIV-1 integrase is added to donor substrates coated 96-well plate; made in house
Experimental: The half-inhibitory concentration IC50 for 3′ excision of the substrate and the strand transfer is in the range of 88.92-10.20 μg/ml, in which the best inhibitory activity of the compound is higher than that of the monomer compound of hydroxybenzoic acid. The mechanism of the HIV-1 integrase is a two-step reaction: 1) 3′ Processing: the integrase binds to the specific sequences of the long terminal repeat region (LTR) of the proviral DNA to form a stable complex, then the endonucleotides of 3′ end of nucleoside is processed, and the GT dinucleotide of the sequence . . . […] Thus, the activity of the integrase inhibitor is embodied in inhibiting the excision of the 3′end of the viral DNA or the strand transfer, and is represented by a half-inhibitory concentration IC50.
In vitro integrase test, 30 synthetic oligonucleotides are used as donor substrates, 20 synthetic oligonucleotides are used as target substrates. Purified HIV-1 integrase is added to donor substrates coated 96-well plate, ELISA reaction is performed, the product of the strand transfer of target DNA is detected, color development is conducted by biotin-labeled alkaline phosphatase system, and the microplate reader is used to measure the OD value.
First, inhibitors of the enzyme may be screened by adding a sample to the reaction system. Before use, the sample is prepared with DMSO to an appropriate concentration, and then is diluted 5 times at 4 dilutions. The sample after dilution is added into the donor substrate coated 96-well plate, and then added to the reaction Buffer containing the genetically engineered target enzyme and the biotin-target substrate, incubated under optimal reaction conditions, and colored by biotin-labeled alkaline phosphatase system, and the OD value for absorbance value at 405 nm is measured.
30 synthetic oligonucleotides are used as donor substrates, 20 synthetic oligonucleotides are used as target substrates, purified HIV-1 integrase is added to donor substrates coated 96-well plate, ELISA reaction is performed, the product of the strand transfer of target DNA is detected, color development is conducted by biotin-labeled alkaline phosphatase system, and the OD value is measured by a microplate reader. The addition of samples to the reaction system can be used to screen inhibitors for the enzyme.
1. HIV-1 IN: it is extracted and saved by Chinese National New Drug Screening Center and Institute of Pharmaceutical Biotechnology under Chinese Academy of Medical Sciences.
2. Sample Treatment: 10 samples A1-A10 dissolved into DMSO prior to use are prepared into suitable concentrations, and then diluted 5 times at 4 dilutions. Donor substrate and target substrate are from Shanghai Biochemical Synthesis.
3. Method for Test: the samples after dilution are added into the donor substrate coated 96-well plate, then added to the reaction Buffer containing the genetically engineered target enzyme and the biotin-target substrate, incubated under optimal reaction conditions, and colored by biotin-labeled alkaline phosphatase system, and the OD value for absorbance value at 405 nm is measured.

HSV-II, SAV strain = assay: Inhibition of cytopathic effects of Vero cells caused by herpes virus type II; type: cell-based; settings: for IC50: read-out: IC50 Against HSV-II
Source text: (§5) Vero cells (kidney cells of African green monkey) are used as viral hosts to test the inhibition degree of the samples to the cytopathic effects of Vero cells caused by herpes virus type I and type II.
(§6) Vero cells (kidney cells of African green monkey) are used as viral hosts to test the inhibition degree of the samples to cytopathic effects of the Vero cell caused by herpes virus type I and type II.
(§7) 1. Virus strains: HSV-I, VR733 strain, and HSV-II, SAV strain, which both are provided by ATCC.
(§8) 2. Sample treatment: the sample is dissolved in DMSO at an appropriate concentration before use, and diluted with the culture medium 3 times at a total of 8 dilutions for test.
(§9) 3. Positive control drug: acyclovir (ACV) produced by the Hubei Ke Yi pharmaceutical factory.

HSV-I, VR733 strain = assay: Inhibition of cytopathic effects of Vero cells caused by herpes virus type I; type: cell-based; settings: for IC50: read-out: IC50 Against HSV-1
Source text: as §5, §6, §7, §8, §9

Vero cells = assay: Half toxic concentration in the anti-herpes screening; type: cell-based, African green monkey
Experimental: Vero cells (kidney cells of African green monkey) are used as viral hosts to test the inhibition degree of the samples to cytopathic effects of the Vero cell caused by herpes virus type I and type II. 2. Sample treatment: the sample is dissolved in DMSO at an appropriate concentration before use, and diluted with the culture medium 3 times at a total of 8 dilutions for test. 4.

[1] = Vero cells, CPE 48 hours, Reed-Muench

Row | Compound | HPV 6/11 virus detection, in words (HPV 6/11 Virus) | HPV 6/11 Virus (HPV 6/11 Virus) | HPV16/18 virus detection, in words (HPV16/18) | HPV16/18 (HPV16/18) | IC50 (HIV-1 integrase) [µM] | also measured
1 | O=C(O)c1ccc(O)c(O)c1 [3,4-dihydroxybenzoic acid, reference compound] | have a high concentration | 1.90 × 10^4 copy/ml | have a high concentration | 8.50 × 10^4 copy/ml |  | inhibition at 109 µg/mL (HIV-1 integrase): < 50%
2 | O=C(c1ccccc1O)c1cccc(O)c1O [2,2′3′-trihydroxybenzophenone] | can no longer be detected | 0 copy/ml | can no longer be detected | 0 copy/ml | 45.4 | 
3 | O=C(c1ccc(O)cc1O)c1cc(O)c(O)c(O)c1O [2,3,4,2′,4′,5-hexahydroxybenzophenone] |  |  |  |  |  | IC50 Against HSV-II (HSV-II, SAV strain; [1]): 28.74 µg/mL (≈ 103 µM); IC50 Against HSV-1 (HSV-I, VR733 strain; [1]): 28.74 µg/mL (≈ 103 µM)
4 | O=C(O)c1cccc(O)c1O [2,3-dihydroxybenzoic acid, reference compound] | have a high concentration | 2.30 × 10^4 copy/ml | have a high concentration | 3.20 × 10^3 copy/ml |  | inhibition at 109 µg/mL (HIV-1 integrase): < 50%
5 | O=C(c1ccccc1O)c1ccccc1O [2,2′-dihydroxybenzophenone] | can no longer be detected | 0 copy/ml | can no longer be detected | 0 copy/ml | 71.5 | IC50 (HSV-II, SAV strain; Human alphaherpesvirus 2, Vero, 48 h): 28.7 µg/mL (≈ 134 µM); TC50 half toxic concentration (Vero cells): 64.15 µg/mL (≈ 299 µM); IC50 (HSV-I, VR733 strain; Human alphaherpesvirus 1, Vero, 48 h): 28.7 µg/mL (≈ 134 µM)
6 | Nc1nc2c(ncn2COCCO)c(=O)[nH]1 [ACV, acyclovir, reference compound] |  |  |  |  |  | IC50 (HSV-II, SAV strain; Human alphaherpesvirus 2, Vero cells, CPE 48 hours, Reed-Muench): 1.23 µg/mL (≈ 5.46 µM); IC50 (HSV-I, VR733 strain; Human alphaherpesvirus 1, Vero cells, CPE 48 hours, Reed-Muench): 1.09 µg/mL (≈ 4.85 µM)
7 | O=C(O)c1cc(O)c(O)c(O)c1 [3,4,5-trihydroxybenzoic acid, reference compound] |  | 0 copy/ml |  | 0 copy/ml | 591 | 
